Test results reported in patent USRE38551E1, “Anticonvulsant enantiomeric amino acid derivatives” (priority 1996, dated 2004).
Where two headings read alike, the source gives them in different places. Marks after values point to notes of the source that are not given here.

What was measured:
[1] = test system: maximal electroshock (MES) induced seizure; assay: 5-day chronic treatment tolerance study (MES test); type: in vivo; details: rats
Method: Compound C, i.e., N-acetyl-D, L-phenylglycine N-benzylamide was subjected to 5-day chronic treatment on anticonvulsant activity (maximal electroshock). 3 groups of 8 animals each were treated as follows. One group was given the MES ED50 of the test drug for 5 days; the second group was given the requisite volume of the vehicle (0.04 ml/10 g body wt.) for 4 days and a single dose (MES ED50) of the test drug on day 5; and the third group was given the requisite volume of the vehicle daily for 5 days. At the time of peak effect of the candidate substance on day 5, all groups were subjected to the MES test and the number of animals protected recorded. Seizure components of the unprotected animals were timed to the nearest 10th of a second and the extensor/flexor (E/F) ratio, S.E., and p value determined. Since extensor duration decreases and flexor duration increases as a maximal seizure is attenuated, the E/F ratio provides a measure of seizure severity.

[2] = test system: hexobarbital sleep time; assay: hexobarbital sleep time test; type: in vivo; details: rats
Method: All rats subjected to the 5-day tolerance studies were maintained in their home cage for 24 hours and then subjected to the hexobarbital sleep time test (day 6). Each rat in each of the 3 groups was given 100 mg/kg of hexobarbital (i.p.) and the sleep time measured to the nearest minute. The mean sleep time and S.E. for each group were calculated.

[3] = test system: Crl:CD BR Charles River rats
Method: II. Five groups of Crl:CD® BR Charles River rats were each exposed to BAMP or a control substance (0.5% methylcellulose [400 Cps] aqueous solution in distilled water) according to the following dosage schedule:
Group 1—vehicle control (10 males, 10 females), 0 mg/kg/day
Group 2—low (10 males, 10 females), 10 mg/kg/day
Group 3—mid low (10 males, 10 females), 30 mg/kg/day
Group 4—mid high (10 males, 10 females), 100 mg/kg/day
Group 5—high (10 males, 10 females), 300 mg/kg/day
Exposure was by oral gavage, once daily, for a period of at least 30 consecutive days, after which all animals were sacrificed for pathologic evaluation.
All animals were weighed once prior to initiation of dosing and weekly thereafter. Food-fasted (overnight) blood samples for clinical chemistry and hematology were collected at termination. Blood samples were collected from the orbital venous plexus using carbon dioxide (mixed with oxygen) as an anesthetic.
All animals were sacrificed, at the appropriate time, by exsanguination, under barbiturate anesthesia, and all were subjected to a necropsy examination.
Clinical observations were reviewed at necropsy, and all grossly observed abnormalities were entered directly into the computerized data collection system. Adrenals, brain with brainstem, heart, kidneys, liver, ovaries, pituitary, testes with epididymides, and thyroid with parathyroids were weighted from each animal. The pituitary and thyroid with parathyroids were weighed after fixation and all of the other organs were weighed at the time of necropsy.
As required by the protocol, histologic evaluations were conducted on liver only from all animals of Groups 1 (control) and 5 (high). All histologic findings were entered directly into the computerized data capture system. Lesions were graded as to relative severity or degree of involvement (1=minimal, 2=slight, 3=moderate, 4=moderately severe, 5=severe). In general, minimal represents the least consistently recognizable degree of any given histoniorphologic alteration, while severe would represent the most extreme degree reasonably possible, with the other three grades occupying a continuum between the two extremes. The grades are subjective, comparative evaluations, based on morphology alone and are not intended by themselves to imply any degree of functional impairment.

[4] = female, group 2, 10 mg/kg/day, 30 days oral
[5] = female, group 3, 30 mg/kg/day, 30 days oral
[6] = female, group 4, 100 mg/kg/day × 30 days oral
[7] = female, group 4, 100 mg/kg/day, 30 days oral
[8] = female, group 5, 300 mg/kg/day × 30 days oral
[9] = female, group 5, 300 mg/kg/day, 30 days oral
[10] = male, group 2, 10 mg/kg/day, 30 days oral
[11] = male, group 3, 30 mg/kg/day, 30 days oral
[12] = male, group 4, 100 mg/kg/day × 30 days oral
[13] = male, group 4, 100 mg/kg/day, 30 days oral
[14] = male, group 5, 300 mg/kg/day × 30 days oral
[15] = male, group 5, 300 mg/kg/day, 30 days oral

Structure (SMILES): CC(=O)NC(C)C(=O)NCc1ccccc1 (racemic) [compound 1, N-Acetyl-D,L-alanine-N′-benzylamide]
- tolerance to the anticonvulsant effects (MES Test) ([1]; 5 daily doses of 48 mg/kg): does not induce tolerance
- animals protected, MES test ([1]; chronically treated group, 5 daily doses of 48 mg/kg): 3/8
- animals protected, MES test ([1]; single dose acute control group, MES ED50 (48 mg/kg)): 4/8
- hexobarbital sleep time ([2]; 5-day treated (48 mg/kg)): 44.4 ± 1.9 min
- hexobarbital sleep time ([2]; acute control (single dose 48 mg/kg)): 34.3 ± 1.1 min

Structure (SMILES): COC[C@@H](NC(C)=O)C(=O)NCc1ccccc1 [Ex. 1, 2, (R)-N-Benzyl-2-Acetamide-3-methoxypropionamide]
- ESOPHAGUS (ES) NOT REMARKABLE (number of animals) [3, 4]: 10
- HEART (HT) ENLARGED (number of animals affected) [3, 4]: 0
- HEART (HT) NOT REMARKABLE (number of animals) [3, 4]: 10
- LIVER (LI) ENLARGED (number of animals affected) [3, 4]: 0
- LIVER (LI) NOT REMARKABLE (number of animals) [3, 4]: 10
- LIVER ORGAN-TO-BODY WT, mean [3, 4]: 3.237%
- LUNG (LU) NOT REMARKABLE (number of animals) [3, 4]: 10
- PARATHYROID (PT) NOT REMARKABLE (number of animals) [3, 4]: 10
- SPLEEN (SP) NOT REMARKABLE (number of animals) [3, 4]: 10
- TERMINAL BODY WT, mean [3, 4]: 214.1 g
- TRACHEA (TR) NOT REMARKABLE (number of animals) [3, 4]: 10
- ESOPHAGUS (ES) NOT REMARKABLE (number of animals) [3, 5]: 10
- HEART (HT) ENLARGED (number of animals affected) [3, 5]: 0
- HEART (HT) NOT REMARKABLE (number of animals) [3, 5]: 10
- LIVER (LI) ENLARGED (number of animals affected) [3, 5]: 0
- LIVER (LI) NOT REMARKABLE (number of animals) [3, 5]: 10
- LIVER ORGAN-TO-BODY WT, mean [3, 5]: 3.244%
- LUNG (LU) NOT REMARKABLE (number of animals) [3, 5]: 10
- PARATHYROID (PT) NOT REMARKABLE (number of animals) [3, 5]: 10
- SPLEEN (SP) NOT REMARKABLE (number of animals) [3, 5]: 10
- TERMINAL BODY WT, mean [3, 5]: 207.0 g
- TRACHEA (TR) NOT REMARKABLE (number of animals) [3, 5]: 10
- LIVER ORGAN-TO-BODY WT, mean [3, 6]: 3.608%
- TERMINAL BODY WT, mean [3, 6]: 218.3 g
- ESOPHAGUS (ES) NOT REMARKABLE (number of animals) [3, 7]: 10
- HEART (HT) ENLARGED (number of animals affected) [3, 7]: 0
- HEART (HT) NOT REMARKABLE (number of animals) [3, 7]: 10
- LIVER (LI) ENLARGED (number of animals affected) [3, 7]: 0
- LIVER (LI) NOT REMARKABLE (number of animals) [3, 7]: 10
- LUNG (LU) NOT REMARKABLE (number of animals) [3, 7]: 10
- PARATHYROID (PT) NOT REMARKABLE (number of animals) [3, 7]: 10
- SPLEEN (SP) NOT REMARKABLE (number of animals) [3, 7]: 10
- TRACHEA (TR) NOT REMARKABLE (number of animals) [3, 7]: 10
- LIVER ORGAN-TO-BODY WT, mean [3, 8]: 3.832* %
- TERMINAL BODY WT, mean [3, 8]: 205.9 g
- ESOPHAGUS (ES) NOT REMARKABLE (number of animals) [3, 9]: 10
- HEART (HT) ENLARGED (number of animals affected) [3, 9]: 0
- HEART (HT) NOT REMARKABLE (number of animals) [3, 9]: 10
- LIVER (LI) ENLARGED (number of animals affected) [3, 9]: 0
- LIVER (LI) NOT REMARKABLE (number of animals) [3, 9]: 10
- LUNG (LU) NOT REMARKABLE (number of animals) [3, 9]: 10
- PARATHYROID (PT) NOT REMARKABLE (number of animals) [3, 9]: 10
- SPLEEN (SP) NOT REMARKABLE (number of animals) [3, 9]: 10
- TRACHEA (TR) NOT REMARKABLE (number of animals) [3, 9]: 10
- ESOPHAGUS (ES) NOT REMARKABLE (number of animals) [3, 10]: 10
- HEART (HT) ENLARGED (number of animals affected) [3, 10]: 0
- HEART (HT) NOT REMARKABLE (number of animals) [3, 10]: 10
- LIVER (LI) ENLARGED (number of animals affected) [3, 10]: 0
- LIVER (LI) NOT REMARKABLE (number of animals) [3, 10]: 10
- LIVER ORGAN-TO-BODY WT, mean [3, 10]: 3.248%
- LUNG (LU) NOT REMARKABLE (number of animals) [3, 10]: 10
- PARATHYROID (PT) NOT REMARKABLE (number of animals) [3, 10]: 10
- SPLEEN (SP) NOT REMARKABLE (number of animals) [3, 10]: 10
- TERMINAL BODY WT, mean [3, 10]: 342.0 g
- TRACHEA (TR) NOT REMARKABLE (number of animals) [3, 10]: 10
- ESOPHAGUS (ES) NOT REMARKABLE (number of animals) [3, 11]: 10
- HEART (HT) ENLARGED (number of animals affected) [3, 11]: 0
- HEART (HT) NOT REMARKABLE (number of animals) [3, 11]: 10
- LIVER (LI) ENLARGED (number of animals affected) [3, 11]: 0
- LIVER (LI) NOT REMARKABLE (number of animals) [3, 11]: 10
- LIVER ORGAN-TO-BODY WT, mean [3, 11]: 3.278%
- LUNG (LU) NOT REMARKABLE (number of animals) [3, 11]: 10
- PARATHYROID (PT) NOT REMARKABLE (number of animals) [3, 11]: 10
- SPLEEN (SP) NOT REMARKABLE (number of animals) [3, 11]: 10
- TERMINAL BODY WT, mean [3, 11]: 349.9 g
- TRACHEA (TR) NOT REMARKABLE (number of animals) [3, 11]: 10
- LIVER ORGAN-TO-BODY WT, mean [3, 12]: 3.351%
- TERMINAL BODY WT, mean [3, 12]: 351.5 g
- ESOPHAGUS (ES) NOT REMARKABLE (number of animals) [3, 13]: 10
- HEART (HT) ENLARGED (number of animals affected) [3, 13]: 0
- HEART (HT) NOT REMARKABLE (number of animals) [3, 13]: 10
- LIVER (LI) ENLARGED (number of animals affected) [3, 13]: 0
- LIVER (LI) NOT REMARKABLE (number of animals) [3, 13]: 10
- LUNG (LU) NOT REMARKABLE (number of animals) [3, 13]: 10
- PARATHYROID (PT) NOT REMARKABLE (number of animals) [3, 13]: 10
- SPLEEN (SP) NOT REMARKABLE (number of animals) [3, 13]: 10
- TRACHEA (TR) NOT REMARKABLE (number of animals) [3, 13]: 10
- LIVER ORGAN-TO-BODY WT, mean [3, 14]: 4.016* %
- TERMINAL BODY WT, mean [3, 14]: 358.8 g
- ESOPHAGUS (ES) NOT REMARKABLE (number of animals) [3, 15]: 10
- HEART (HT) ENLARGED (number of animals affected) [3, 15]: 0
- HEART (HT) NOT REMARKABLE (number of animals) [3, 15]: 10
- LIVER (LI) ENLARGED (number of animals affected) [3, 15]: 1
- LIVER (LI) NOT REMARKABLE (number of animals) [3, 15]: 9
- LUNG (LU) NOT REMARKABLE (number of animals) [3, 15]: 10
- PARATHYROID (PT) NOT REMARKABLE (number of animals) [3, 15]: 10
- SPLEEN (SP) NOT REMARKABLE (number of animals) [3, 15]: 10
- TRACHEA (TR) NOT REMARKABLE (number of animals) [3, 15]: 10
- multiple of anti-convulsant dose causing no adverse histologic effects ([3]; rats, 30 days chronic dosing): 76.9
